{"source": "patent US12194007B2", "about": "“Pharmaceutical composition for preventing or treating cancer, comprising gossypol, phenformin, and anticancer agent” (National Cancer Center, priority 2018, dated 2025)", "type_in_all_cases": "cell-based", "key": {"[1]": {"tested_on": "UACC62 cell line or an A375 cell line", "assay": "SRB cell proliferation assay, melanoma cell lines", "conditions": "for effect of inhibiting cell proliferation in the triple drug treatment group: cisplatin or oxaliplatin 10 μM mixed with gossypol 5 μM and phenformin 100 μM (Tables 5-6, FIGS. 2B, 2C)"}, "[2]": {"tested_on": "A549 cell line or H522 cell line", "assay": "SRB cell proliferation assay, non-small cell lung cancer cell lines", "conditions": "for effect of inhibiting cell proliferation in the triple drug treatment group: cisplatin 20 μM or 5-FU 5 μM mixed with gossypol 5 μM and phenformin 100 μM (Tables 11-12, FIGS. 4B, 4C); for synergistic effect of anticancer action when mixed with gossypol and phenformin: lung cancer (NSCLC), irinotecan 1 μM, cisplatin 20 μM or 5-FU 5 μM + gossypol 5 μM + phenformin 100 μM"}, "[3]": {"tested_on": "PC3 cell line or DU145 cell line", "assay": "SRB cell proliferation assay, prostate cancer cell lines", "conditions": "docetaxel 50 nM or irinotecan 0.5 μM mixed with gossypol 5 μM and phenformin 100 μM (Tables 20-21, FIGS. 7B, 7C)"}, "[4]": {"tested_on": "HT29 cell line or Colo205 cell line", "assay": "SRB cell proliferation assay, colorectal cancer cell lines", "conditions": "for effect of inhibiting cell proliferation in the triple drug treatment group: cisplatin or capecitabine 10 μM mixed with gossypol 2.5 μM and phenformin 75 μM (Tables 8-9, FIGS. 3B, 3C); for synergistic effect of anticancer action when mixed with gossypol and phenformin: colon cancer, irinotecan 1 μM (phenformin 50 μM) or cisplatin/capecitabine 10 μM (phenformin 75 μM) + gossypol 2.5 μM"}, "[5]": {"tested_on": "SK-OV-3 or OVCAR3 cell line", "assay": "SRB cell proliferation assay, ovarian cancer cell lines", "conditions": "for synergistic effect of anticancer action when mixed with gossypol and phenformin: ovarian cancer, paclitaxel 50 nM or irinotecan 0.5 μM + gossypol 5 μM + phenformin 100 μM"}, "SNU449 or Huh7 cell line": {"tested_on": "SNU449 or Huh7 cell line", "assay": "SRB cell proliferation assay, liver cancer cell lines", "conditions": "for synergistic effect of anticancer action when mixed with gossypol and phenformin: liver cancer, cisplatin 1 μM or sorafenib 5 μM + gossypol 5 μM + phenformin 100 μM"}, "[6]": {"tested_on": "BT549 cell line or MB231 cell line", "assay": "SRB cell proliferation assay, breast cancer cell lines"}, "[7]": {"tested_on": "ACHN cell line or CAKI-1 cell line", "assay": "SRB cell proliferation assay, kidney cancer cell lines", "method": "Specifically, while culturing the ACHN cell line or CAKI-1 cell line, which is a kidney cancer cell line, each cell was inoculated into a 96-well plate at a density of 5,000 to 20,000 cells/well depending on the amplification phase of the culture time. After inoculation, the anticancer agent mixtures of the following [Table 1] to [Table 3] were added to each well and cultured in a CO2 incubator for 24 hours. The anticancer agent mixture was prepared so that the final concentration of each anticancer agent can be appropriately added by mixing each at a stock concentration and then adding 100 μl each. After treatment with the anticancer agent, cells were further cultured for 48 hours, and then 10% (w/v) trichloroacetic acid (TCA) was added to each well and incubated at 4° C. for 60 minutes to fix the cells. The supernatant liquid other than the fixed cells was removed, the plate was washed 5 times with tap water, and then dried in air. After drying, 100 μl of 0.4% (w/v) sulforhodamine B buffer solution containing 1% acetic acid was added to each well, and left at room temperature for 5 minutes to stain the cells. After staining the cells, the cells were washed 5 times with 1% acetic acid to remove unstained dye and then dried in air. The colored dye was immobilized with 10 mM trizma base, and then absorbance was measured at 515 nm using a plate reader. As an untreated control, the degree of cell proliferation of a cell line cultured without treatment with an anticancer agent was measured, and the degree of cell proliferation of each experimental group with respect to the untreated control was calculated as a relative ratio and expressed as a percentage (%)."}}}
{"smiles": "O=C1[O][Pt]2([NH][C@@H]3CCCC[C@H]3[NH]2)[O]C1=O", "note": "[oxaliplatin]", "values": [{"measurement": "effect of inhibiting cell proliferation in the triple drug treatment group", "setting": "[1]", "value": "level similar to that of the double drug treatment group"}]}
{"smiles": "O=c1[nH]cc(F)c(=O)[nH]1", "note": "[5-FU, 5-fluorouracil]", "values": [{"measurement": "effect of inhibiting cell proliferation in the triple drug treatment group", "setting": "[2]", "value": "level similar to that of the double drug treatment group"}, {"measurement": "synergistic effect of anticancer action when mixed with gossypol and phenformin", "setting": "[2]", "value": "not exhibited"}]}
{"smiles": "CC(=O)O[C@@]12CO[C@@H]1C[C@H](O)[C@@]1(C)C(=O)[C@H](O)C3=C(C)[C@@H](OC(=O)[C@H](O)[C@@H](NC(=O)OC(C)(C)C)c4ccccc4)C[C@@](O)([C@@H](OC(=O)c4ccccc4)[C@H]21)C3(C)C", "note": "[docetaxel]", "values": [{"measurement": "effect of inhibiting cell proliferation in the triple drug treatment group", "setting": "[3]", "value": "level similar to that of the double drug treatment group"}]}
{"smiles": "CCCCCOC(=O)Nc1nc(=O)n([C@@H]2O[C@H](C)[C@@H](O)[C@H]2O)cc1F", "note": "[capecitabine]", "values": [{"measurement": "effect of inhibiting cell proliferation in the triple drug treatment group", "setting": "[4]", "value": "level similar to that of the double drug treatment group"}, {"measurement": "synergistic effect of anticancer action when mixed with gossypol and phenformin", "setting": "[4]", "value": "not exhibited"}]}
{"smiles": "N.N.[Cl][Pt][Cl]", "note": "[cisplatin]", "values": [{"measurement": "degree of cell proliferation with respect to the untreated control", "setting": "[5]; gossypol 5 μM, phenformin 100 μM, cisplatin 1 nM, single or double (Table 16, FIG. 6A)", "value": "proliferation of cancer cells could be inhibited at a significant level"}, {"measurement": "synergistic effect of anticancer action when mixed with gossypol and phenformin", "setting": "[5]; cisplatin 1 nM", "value": "can exhibit a synergistic effect"}, {"measurement": "effect of inhibiting cell proliferation in the triple drug treatment group", "setting": "[1]", "value": "level similar to that of the double drug treatment group"}, {"measurement": "synergistic effect of anticancer action when mixed with gossypol and phenformin", "setting": "[1]; melanoma, vemurafenib 0.5 μM, cisplatin 10 μM or oxaliplatin 10 μM + gossypol 5 μM + phenformin 100 μM", "value": "not exhibited"}, {"measurement": "degree of cell proliferation with respect to the untreated control", "setting": "SNU449 or Huh7 cell line; gossypol 5 μM, phenformin 100 μM, cisplatin 1 μM, single or double (Table 22, FIG. 8A)", "value": "proliferation of cancer cells could be inhibited at a significant level"}, {"measurement": "synergistic effect of anticancer action when mixed with gossypol and phenformin", "setting": "SNU449 or Huh7 cell line", "value": "can exhibit a synergistic effect"}, {"measurement": "effect of inhibiting cell proliferation in the triple drug treatment group", "setting": "[2]", "value": "level similar to that of the double drug treatment group"}, {"measurement": "synergistic effect of anticancer action when mixed with gossypol and phenformin", "setting": "[2]", "value": "not exhibited"}, {"measurement": "synergistic effect of anticancer action when mixed with gossypol and phenformin", "setting": "[6]; breast cancer, named agent + gossypol 5 μM + phenformin 100 μM (Tables 13-15)", "value": "not exhibited"}, {"measurement": "effect of inhibiting cell proliferation in the triple drug treatment group", "setting": "[6]; cisplatin 1 μM or doxorubicin 1 μM mixed with gossypol 5 μM and phenformin 100 μM (Tables 14-15, FIGS. 5B, 5C)", "value": "level similar to that of the double drug treatment group"}, {"measurement": "effect of inhibiting cell proliferation in the triple drug treatment group", "setting": "[4]", "value": "level similar to that of the double drug treatment group"}, {"measurement": "synergistic effect of anticancer action when mixed with gossypol and phenformin", "setting": "[4]", "value": "not exhibited"}]}
{"smiles": "CNC(=O)c1cc(Oc2ccc(NC(=O)Nc3ccc(Cl)c(C(F)(F)F)c3)cc2)ccn1", "note": "[sorafenib]", "values": [{"measurement": "degree of cell proliferation with respect to the untreated control", "setting": "[7]; gossypol 2.5 μM, phenformin 100 μM, sorafenib 10 μM, single, double or triple (Table 1, FIG. 1A)", "value": "proliferation of cancer cells could be inhibited"}, {"measurement": "synergistic effect of anticancer action when mixed with gossypol and phenformin", "setting": "[7]; renal cell carcinoma, named agent 10 μM + gossypol 2.5 μM + phenformin 100 μM", "value": "can exhibit a synergistic effect"}, {"measurement": "synergistic effect of anticancer action when mixed with gossypol and phenformin", "setting": "SNU449 or Huh7 cell line", "value": "not exhibited"}, {"measurement": "effect of inhibiting cell proliferation in the triple drug treatment group", "setting": "SNU449 or Huh7 cell line; sorafenib 5 μM mixed with gossypol 5 μM and phenformin 100 μM (Table 23, FIG. 8B)", "value": "level similar to that of the double drug treatment group"}]}
{"smiles": "CC(=O)O[C@H]1C(=O)[C@@]2(C)[C@H]([C@H](OC(=O)c3ccccc3)[C@]3(O)C[C@H](OC(=O)[C@H](O)[C@@H](NC(=O)c4ccccc4)c4ccccc4)C(C)=C1C3(C)C)[C@]1(OC(C)=O)CO[C@@H]1C[C@@H]2O", "note": "[paclitaxel]", "values": [{"measurement": "synergistic effect of anticancer action when mixed with gossypol and phenformin", "setting": "[5]; cisplatin 1 nM", "value": "not exhibited"}, {"measurement": "effect of inhibiting cell proliferation in the triple drug treatment group", "setting": "[5]; paclitaxel 50 nM or irinotecan 0.5 μM mixed with gossypol 5 μM and phenformin 100 μM (Tables 17-18, FIGS. 6B, 6C)", "value": "level similar to that of the double drug treatment group"}]}
